The results in this text go back to patent US20150011463A1, “AGENT FOR PREVENTING OR AM[…] ENDOTHELIAL MALFUNCTION” (KYOWA HAKKO BIO CO., LTD., priority 2012, published 2015).

The test system of this test is normal human umbilical vein endothelial cell (HUVEC). Description: NO production (nitrite in culture supernatant by HPLC) in HUVEC. The class given is cell-based. The settings on record: citrulline final concentration 0.3 mM, 24-hour culture, vs control (PBS). As for the experimental part: The cells were cultured in at 37° C., in 5% CO2 incubator, and used for experiment after 4 to 6 passages. Citrulline and reduced glutathione were obtained from Kyowa Hakko Bio.
A cell suspension (0.45 mL) with the adjusted initial cell concentration of 5×10^5 cells/mL was inoculated in a 24-well plate (IWAKI). After 40-hour culture, the media were replaced with those containing citrulline (final concentration 0.3 mM: citrulline group), reduced glutathione (final concentration 1 mM: high-dose glutathione group), and a citrulline and reduced glutathione mixture (citrulline final concentration 0.3 mM; glutathione final concentration 0.3 mM: citrulline+low-dose glutathione group). Media with the sole addition of solvent (PBS) were used as a control group. After 24-hour culture, the cell culture (100 μL) was centrifuged at 12,000 rpm for 10 minutes, and the concentration of nitrite (NO2), which is the stable NO metabolite, in culture supernatant was quantified by HPLC (ENO-20, EICOM).

With `NC(=O)NCCC[C@H](N)C(=O)O` [citrulline], the “effect on NO production (concentration of nitrite (NO2) in culture supernatant)” value is “no effect”.
